From patent US9556437B2, “FAT1 gene in cancer and inflammation” (DEPARTMENT OF BIOTECHNOLOGY (DBT), priority 2012, dated 2017)
Entries after “also recorded” stand apart in the source; their conditions may differ.

How the values were obtained:
Type in all cases: cell-based, human
[1] = tested on: IL1β; experiment: IL1β mRNA expression by q-PCR; conditions: U87MGsiFAT1 vs siControl
Description: Cell Culture and siRNA Transfection: The human glioma cell lines U87MG, U373, A172, T98G, GOS3 and SW1088 were obtained from ATCC; Rockville, Md., cultured in DMEM (Sigma-Aldrich, Switzerland) supplemented with 10% (v/v) FCS (Sigma-Aldrich), 3.7 g/l sodium bicarbonate (Sigma-Aldrich), Ciprofloxacin 10 μg/ml and 5% CO2 at 37° C. For transfection, 2×10^5 cells were seeded per 25 cm^2 flask. After 24 hrs, cells were transfected with FAT1 siRNA and universal medium GC control siRNA (Invitrogen) according to the manufacturer's protocol with a final concentration of 20 nM of siRNA using LIPOFECTAMINE 2000 (Invitrogen) and Opti-Mem media (Invitrogen). After 4 hrs of siRNA transfection, the media was supplemented with DMEM containing 2×FCS. […] Photomicrographs of the cells were taken using an inverted phase contrast microscope (Nikon TMS, Phase contrast microscope, Japan). For simultaneous knockdown of FAT1 and PDCD4, siRNA from Dharmacon were used. Transfection was performed as earlier with 50 nM of FAT1 siRNA along with 50 nM of PDCD4 siRNA or 50 nM of control siRNA.
cDNA Synthesis and Quantitative PCR: Total RNA was isolated from cells at appropriate time point (vide supra) using TRIzol reagent (Invitrogen), quantified using a Nanodrop ND-1000 spectrophotometer.

[2] = tested on: FAT1 mRNA; experiment: FAT1 knockdown by siRNA, q-PCR for FAT1; conditions: U87MG cell line
Description: (§1) Cell Culture and siRNA Transfection: The human glioma cell lines U87MG, U373, A172, T98G, GOS3 and SW1088 were obtained from ATCC; Rockville, Md., cultured in DMEM (Sigma-Aldrich, Switzerland) supplemented with 10% (v/v) FCS (Sigma-Aldrich), 3.7 g/l sodium bicarbonate (Sigma-Aldrich), Ciprofloxacin 10 μg/ml and 5% CO2 at 37° C. For transfection, 2×10^5 cells were seeded per 25 cm^2 flask. After 24 hrs, cells were transfected with FAT1 siRNA and universal medium GC control siRNA (Invitrogen) according to the manufacturer's protocol with a final concentration of 20 nM of siRNA using LIPOFECTAMINE 2000 (Invitrogen) and Opti-Mem media (Invitrogen). After 4 hrs of siRNA transfection, the media was supplemented with DMEM containing 2×FCS. The ability of each siRNA to mediate knockdown of FAT1 mRNA was confirmed using qRT-PCR. Photomicrographs of the cells were taken using an inverted phase contrast microscope (Nikon TMS, Phase contrast microscope, Japan). For simultaneous knockdown of FAT1 and PDCD4, siRNA from Dharmacon were used. Transfection was performed as earlier with 50 nM of FAT1 siRNA along with 50 nM of PDCD4 siRNA or 50 nM of control siRNA.
(§2) cDNA Synthesis and Quantitative PCR: Total RNA was isolated from cells at appropriate time point (vide supra) using TRIzol reagent (Invitrogen), quantified using a Nanodrop ND-1000 spectrophotometer. […]

[3] = tested on: MMP3; experiment: MMP3 mRNA expression by q-PCR; conditions: U87MGsiFAT1 cells
Description: as §1, §2

[4] = tested on: U87MG cells; experiment: Cell cycle analysis by flow cytometry (PI staining); conditions: FACS, 72 hrs after transfection, vs siControl
Description: On day 1, siRNA transfection was carried out. 1 ml of OPTIMEM, 50 picomoles of siRNA (siControl and siFAT1) and 3 μl of LIPOFECTAMINE 2000 was used per well. Cells were then analyzed by flow-cytometery after 72 hrs of transfection to assess the cell cycle distribution of individual cells. Cells were fixed in 70% ethanol overnight at −20′C followed by propidium iodide (PI) staining. Florescence was measured on FACS (florescence activated cell sorter, BD Biosciences, Bedford, Mass.). […] On day 1, transfection was carried out. 50 μl of OPTIMEM, 2 picomoles of siRNA (control and FAT1 siRNA) and 0.5 μl of LIPOFECTAMINE 2000 was used per well. After 4 hrs incubation at 37° C., 50 μl 2× media was added per well. After every time point (24, 48, 72 and 96 hrs of transfection), media was removed from wells and 100 μl of MTT (0.2 mg/ml) was added per well and incubated for 2-4 hrs. The formazan crystals formed were dissolved by addition of 100 μl of DMSO and absorbance was measured at 570 nm.

[5] = tested on: U87MG cells; experiment: In vitro Scratch Assay of cell migration
Description: FIGS. 14A to 14D: Effect of NS-398 and FAT1 knockdown simultaneously on Cell Migration by In-vitro Scratch Assay. The in vitro Scratch Assay was performed at 72 hours after culturing cells as follows: At Day 0, 5,000 U87MG cells are plated per well of a 96 well plate. […] (C) Assay of cell migration by the Modified Boyden Chamber Assay under conditions of normoxia and hypoxia. (D) Quantitation of data from (C).
The Scratch Assay is performed at 72 hours after treatment. A scratch is made on the culture surface using a sterile 10 μl tip and cells were allowed to grow. Images were captured after every 3 hrs to monitor the closure of the wound in the culture surface for next 24 hrs.

For “siFAT1: FAT1 specific siRNA (Invitrogen), FAT Stealth RNAi siRNA-I (HSS103567), used for further experiments (sense CCCAACACACCUGUGGUCAUGGUAA; antisense UUACCAUGACCACAGGUGUGUUGGG; Stealth modification, chemistry not fully specified; listed as Homo sapiens)”, the “reduction in IL1β mRNA expression” value [1] was roughly 10 fold, the “knockdown efficiency among three FAT1 siRNAs” value [2] was “maximum knockdown efficiency” and the “decrease in MMP3 mRNA expression” value [3] was “more than 10 fold”. The “distribution of cell population in different phases of cell cycle” value [4] was “no variation; also recorded: No difference”, the “inhibition of cell migration” value ([5]; Scratch Assay at 72 hours after treatment) was “about 50%” and the “migration ability of cells” value ([5]; scratch and modified Boyden chamber assays, normoxic or hypoxic conditions (FIG. 14)) was “reduced”.
